Assay results published in US5663186A, “Treatment of atherosclerosis with angiotensin II receptor blocking imidazoles” (Merck & Co., Inc., priority 1995, dated 1997).

Columns and labels:
[1] = system: patients with mild to moderate hypertension; experiment: Clinical study: LDL cholesterol; format: in vivo
Experimental: (§1) The total, HDL, LDL and VLDL cholesterol levels were measured using the procedures described below:
The low density lipoprotein cholesterol is computed by subtracting from the cholesterol value determined above one-fifth of the triglycerides and the HDL cholesterol value determined above. This LDL computation is valid only if the triglyceride level is less than 400 mg/dL.

[2] = system: patients with mild to moderate hypertension; experiment: Clinical study: sitting diastolic blood pressure; format: in vivo; conditions: for Peak Sitting Diastolic Blood Pressure, Mean (on treatment) / Mean Change in Peak Sitting Diastolic Blood Pressure / Change in Peak Sitting Diastolic Blood Pressure, adj. mean: peak (6 hours postdose); for Trough Sitting Diastolic Blood Pressure, Mean (on treatment) / Mean Change in Trough Sitting Diastolic Blood Pressure / Change in Trough Sitting Diastolic Blood Pressure, adj. mean: trough (24 hours postdose)
Experimental: Sitting Diastolic Blood Pressure Results At Week 6 and 12
The changes from baseline blood pressure (primary=trough sitting diastolic blod pressure at weeks 6 and 12) were evaluated using a least squares analysis of the means based upon an analysis of covariance (covariate=baseline blood pressure)for a randomized block (block=investigator site) design. An "all-patients-treated" and a "per-protocol" analysis were performed. The study was designed to detect a 5 mmHg difference in mean change between treatments with 95% probability based upon a group size of 86 with an α of 0.05 (two-sided) and a standard deviation of 9 mmHg.

[3] = system: patients with mild to moderate hypertension; experiment: Clinical study: total cholesterol; format: in vivo
Experimental: as §1
Cholesterol esters in the sample are hydrolyzed by cholesterol esterase to cholesterol and free fatty acids. The cholesterol produced in the reaction plus the free cholesterol present in the sample, are oxidized by cholesterol oxidase to form cholesten-3-one and hydrogen peroxide. Peroxidase catalyzes the hydrogen peroxide oxidation and 4-aminoantipyrine(4-AAP) and phenol with subsequent coupling to 3,4-dichlorophenol. The end product is a quinoneimine dye which is read at a primary wavelength of 520 nm. The color formation is proportional to the concentration of cholesterol present. This absorbance value is then compared to the absorbance by a known calibrator. The result is then printed out directly in mg/dL.

[4] = system: patients with mild to moderate hypertension; experiment: Clinical study: HDL cholesterol; format: in vivo
Experimental: as §1
High Density Lipoprotein Cholesterol
The high density lipoprotein (HDL) cholesterol was measured by analyzing a 2.0 mL volume of non-hemolyzed serum or EDTA plasma(heparinized plasma is not recommended), which has been separated from the cells within 30 minutes of collection. A fasting specimen of at least 12 hours is required for accurate interpretation. In most persons, the plasma cholesterol level is affected very little by a recent meal. However, in some persons an increase of up to 100 mg/dL may be induced by a recent meal. The level of cholesterol in plasma is slightly lower than serum (approximately 3%) due to the fact that the liquid EDTA dilutes the plasma slightly and it somotically draws water out of the erythrocytes.
The method used for in this procedure utilizes the precipitating properties of phosphotungstate. Addition of the HDL precipitating reagent lowers the pH of the sample to the isoelectric point for the LDL and VLDL. LDL and VLDL molecules at pH 5.7 have overall electrical neutrality.
Phosphotungstate then selectively forms insoluble ligand complexes with LDL and VLDL. Differences in ionic strength forcefully precipitate these complexes. Centrifugation removes them, leaving the HDL fraction in the supernatant. The resulting supernatant cholesterol (HDL) is then assayed for cholesterol. Cholesterol esters in the sample are hydrolyzed by cholesterol esterase to cholesterol and free fatty acids. The cholesterol produced in the reaction plus the free cholesterol present in the sample, are oxidized by cholesterol oxidase to form cholesten-3-one and hydrogen peroxide. Peroxidase catalyzes the hydrogen peroxide oxidation and 4-aminoantipyrine (4-AAP) and phenol with subsequent coupling to 3,4-dichlorophenol.
The end product is a quinoneimine dye which is read at a primary wavelength of 520 nm. The color formation is proportional to the concentration of cholesterol present. This absorbance value is then compared to the absorbance by a known calibrator. The result is then printed out directly in mg/dL.

[5] = system: Renal Hypertensives Rats; experiment: Antihypertensive effects in renal hypertensive rats (left renal artery ligation); format: in vivo, rat
Experimental: This procedure increases blood pressure by increasing renin production with consequent elevation of AII levels. Compounds are administered orally at 100 mg/kg and/or intravenously via a cannula in the jugular vein at 10 mg/kg. Arterial blood pressure is continuously measured directly through a carotid artery cannula and recorded using a pressure transducer and a polygraph. Blood pressure levels after treatment are compared to pretreatment levels to determine the antihypertensive effects of the compounds (See Table 1).
Compound listed in Table 2 was tested in the same manner as described for Table 1, except that in the test for antihypertensive effects in renal hypertensive rats, the compounds were administered orally at 30 mg/kg and intravenously at 3 mg/kg.

[6] = system: patients with mild to moderate hypertension; experiment: Clinical study: triglycerides; format: in vivo
Experimental: After six weeks the non-responders were titrated to a 100 mg oral dose administered once daily.

[7] = system: AT1 receptor subtype; conditions: cited from earlier work

CCCCc1nc(Cl)c(CO)n1Cc1ccc(-c2ccccc2-c2nnn[nH]2)cc1.[K] [Losartan, 2-n-butyl-4-chloro-1-[(2'-(tetrazol-5-yl)-1,1'-biphenyl-4-yl)-methyl]-1H-imidazole-5-methanol potassium salt]
LDL CHOLESTEROL, TREATMENT MEAN ([1]; LOS 50, week 12, N 102): 123.5 mg/dL | LDL CHOLESTEROL, CHANGE MEAN ([1]; LOS 50, week 12, N 102, change from baseline 127.7): -4.2 mg/dL | LDL CHOLESTEROL, TREATMENT MEAN ([1]; LOS 50/100, week 12, N 95): 117.9 mg/dL | LDL CHOLESTEROL, CHANGE MEAN ([1]; LOS 50/100, week 12, N 95, change from baseline 126.3): -8.4 mg/dL | Category I: Trough SDBP <90 mmHg, number of patients ([2]; 6 wk, 50 mg, of 125): 37 | Category I: Trough SDBP <90 mmHg, percent of patients ([2]; 6 wk, 50 mg, of 125): 29.6% | Category II: Trough SDBP ≥90 mmHg, number of patients ([2]; 6 wk, 50 mg, of 125): 20 | Category II: Trough SDBP ≥90 mmHg, percent of patients ([2]; 6 wk, 50 mg, of 125): 16.0% | Category III: Neither Category I or II, number of patients ([2]; 6 wk, 50 mg, of 125): 68 | Category III: Neither Category I or II, percent of patients ([2]; 6 wk, 50 mg, of 125): 54.4% | Category I: Trough SDBP <90 mmHg, number of patients ([2]; 6 wk, 50/100 mg, of 118): 37 | Category I: Trough SDBP <90 mmHg, percent of patients ([2]; 6 wk, 50/100 mg, of 118): 31.3% | Category II: Trough SDBP ≥90 mmHg, number of patients ([2]; 6 wk, 50/100 mg, of 118): 21 | Category II: Trough SDBP ≥90 mmHg, percent of patients ([2]; 6 wk, 50/100 mg, of 118): 17.7% | Category III: Neither Category I or II, number of patients ([2]; 6 wk, 50/100 mg, of 118): 60 | Category III: Neither Category I or II, percent of patients ([2]; 6 wk, 50/100 mg, of 118): 50.8% | Category I: Trough SDBP <90 mmHg, number of patients ([2]; 12 wk, 50 mg, of 125): 40 | Category I: Trough SDBP <90 mmHg, percent of patients ([2]; 12 wk, 50 mg, of 125): 32.0% | Category II: Trough SDBP ≥90 mmHg, number of patients ([2]; 12 wk, 50 mg, of 125): 18 | Category II: Trough SDBP ≥90 mmHg, percent of patients ([2]; 12 wk, 50 mg, of 125): 14.4% | Category III: Neither Category I or II, number of patients ([2]; 12 wk, 50 mg, of 125): 67 | Category III: Neither Category I or II, percent of patients ([2]; 12 wk, 50 mg, of 125): 53.6% | Category I: Trough SDBP <90 mmHg, number of patients ([2]; 12 wk, 50/100 mg, of 118): 37 | Category I: Trough SDBP <90 mmHg, percent of patients ([2]; 12 wk, 50/100 mg, of 118): 31.3% | Category II: Trough SDBP ≥90 mmHg, number of patients ([2]; 12 wk, 50/100 mg, of 118): 24 | Category II: Trough SDBP ≥90 mmHg, percent of patients ([2]; 12 wk, 50/100 mg, of 118): 20.3% | Category III: Neither Category I or II, number of patients ([2]; 12 wk, 50/100 mg, of 118): 57 | Category III: Neither Category I or II, percent of patients ([2]; 12 wk, 50/100 mg, of 118): 48.3% | Peak Sitting Diastolic Blood Pressure, Mean (on treatment) ([2]; 6 wk, 50 mg, N 118, all-patients-treated): 90.2 mmHg | Mean Change in Peak Sitting Diastolic Blood Pressure ([2]; 6 wk, 50 mg, N 118, baseline 99.9): -9.7 mmHg | Change in Peak Sitting Diastolic Blood Pressure, adj. mean ([2]; 6 wk, 50 mg, N 118, least squares): -9.7 mmHg | Peak Sitting Diastolic Blood Pressure, Mean (on treatment) ([2]; 6 wk, 50/100 mg, N 111, all-patients-treated): 90.3 mmHg | Mean Change in Peak Sitting Diastolic Blood Pressure ([2]; 6 wk, 50/100 mg, N 111, baseline 99.1): -8.9 mmHg | Change in Peak Sitting Diastolic Blood Pressure, adj. mean ([2]; 6 wk, 50/100 mg, N 111, least squares): -9.0 mmHg | Peak Sitting Diastolic Blood Pressure, Mean (on treatment) ([2]; 12 wk, 50 mg, N 121, all-patients-treated): 90.3 mmHg | Mean Change in Peak Sitting Diastolic Blood Pressure ([2]; 12 wk, 50 mg, N 121, baseline 99.8): -9.5 mmHg | Change in Peak Sitting Diastolic Blood Pressure, adj. mean ([2]; 12 wk, 50 mg, N 121, least squares): -9.3 mmHg | Peak Sitting Diastolic Blood Pressure, Mean (on treatment) ([2]; 12 wk, 50/100 mg, N 113, all-patients-treated): 89.1 mmHg | Mean Change in Peak Sitting Diastolic Blood Pressure ([2]; 12 wk, 50/100 mg, N 113, baseline 99.2): -10.1 mmHg | Change in Peak Sitting Diastolic Blood Pressure, adj. mean ([2]; 12 wk, 50/100 mg, N 113, least squares): -10.1 mmHg | Trough Sitting Diastolic Blood Pressure, Mean (on treatment) ([2]; 6 wk, 50 mg, N 125, all-patients-treated): 95.3 mmHg | Mean Change in Trough Sitting Diastolic Blood Pressure ([2]; 6 wk, 50 mg, N 125, baseline 102.1): -6.9 mmHg | Change in Trough Sitting Diastolic Blood Pressure, adj. mean ([2]; 6 wk, 50 mg, N 125, least squares): -6.9 mmHg | Trough Sitting Diastolic Blood Pressure, Mean (on treatment) ([2]; 6 wk, 50/100 mg, N 118, all-patients-treated): 94.3 mmHg | Mean Change in Trough Sitting Diastolic Blood Pressure ([2]; 6 wk, 50/100 mg, N 118, baseline 102.2): -7.9 mmHg | Change in Trough Sitting Diastolic Blood Pressure, adj. mean ([2]; 6 wk, 50/100 mg, N 118, least squares): -7.9 mmHg | Trough Sitting Diastolic Blood Pressure, Mean (on treatment) ([2]; 12 wk, 50 mg, N 125, all-patients-treated): 94.2 mmHg | Mean Change in Trough Sitting Diastolic Blood Pressure ([2]; 12 wk, 50 mg, N 125, baseline 102.1): -7.9 mmHg | Change in Trough Sitting Diastolic Blood Pressure, adj. mean ([2]; 12 wk, 50 mg, N 125, least squares): -7.9 mmHg | Trough Sitting Diastolic Blood Pressure, Mean (on treatment) ([2]; 12 wk, 50/100 mg, N 118, all-patients-treated): 93.6 mmHg | Mean Change in Trough Sitting Diastolic Blood Pressure ([2]; 12 wk, 50/100 mg, N 118, baseline 102.2): -8.6 mmHg | Change in Trough Sitting Diastolic Blood Pressure, adj. mean ([2]; 12 wk, 50/100 mg, N 118, least squares): -8.6 mmHg | TOTAL CHOLESTEROL, CHANGE MEAN ([3]; LOS 50, week 12, N 107, change from baseline 211.1): -3.9 mg/dL | TOTAL CHOLESTEROL, TREATMENT MEAN ([3]; LOS 50, week 12, N 107, oral once daily): 207.3 mg/dL | TOTAL CHOLESTEROL, TREATMENT MEAN ([3]; LOS 50/100, week 12, N 106): 204.8 mg/dL | TOTAL CHOLESTEROL, CHANGE MEAN ([3]; LOS 50/100, week 12, N 106, change from baseline 212.6): -7.9 mg/dL | HDL CHOLESTEROL, TREATMENT MEAN ([4]; LOS 50, week 12, N 107): 52.1 mg/dL | HDL CHOLESTEROL, CHANGE MEAN ([4]; LOS 50, week 12, N 107, change from baseline 52.5): -0.4 mg/dL | HDL CHOLESTEROL, TREATMENT MEAN ([4]; LOS 50/100, week 12, N 106): 52.3 mg/dL | HDL CHOLESTEROL, CHANGE MEAN ([4]; LOS 50/100, week 12, N 106, change from baseline 52.9): -0.5 mg/dL | Antihypertensive Effects in Renal Hypertensives Rats, Intravenous Activity ([5]; intravenous, 10 mg/kg or less): + (Significant decrease in blood pressure at 10 mg/kg or less) | Antihypertensive Effects in Renal Hypertensives Rats, Oral Activity ([5]; oral, 100 mg/kg or less): + (Significant decrease in blood pressure at 100 mg/kg or less) | TRIGLYCERIDES, TREATMENT MEAN ([6]; LOS 50, week 12, N 107): 173.1 mg/dL | TRIGLYCERIDES, CHANGE MEAN ([6]; LOS 50, week 12, N 107, change from baseline 170.4): 2.7 mg/dL | TRIGLYCERIDES, TREATMENT MEAN ([6]; LOS 50/100, week 12, N 106): 187.8 mg/dL | TRIGLYCERIDES, CHANGE MEAN ([6]; LOS 50/100, week 12, N 106, change from baseline 174.4): 13.4 mg/dL | AII antagonism, oral activity [7]: orally active A II antagonists
